The values below are quoted from earlier work in patent US10398673B2, “Mast cell stabilizers treatment for systemic disorders” (Respivant Sciences GmbH, priority 2014, dated 2019).

In the case of `O=C(O)c1cc(=O)c2c(OCC(O)COc3cccc4oc(C(=O)O)cc(=O)c34)cccc2o1` [cromolyn sodium], the oral bioavailability entry is recorded as “less than 1%”.
